Reference: patent US12485075B2, “Particulates of polyphenolics and dispersions thereof” (priority 2020, dated 2025)

Key:
[1] = system: human skin explants; experiment: Intracellular ROS scavenging activity assay, solar simulated UVA/UVB exposure; assay type: cell-based
Method: Intracellular Reactive Oxygen Species (ROS) Scavenging Activity Assays were conducted on human skin explants from donors of skin Phototype II. The skin explants were treated with, a non-fluorescent probe, 2′, 7′-Dichlorofluorescein diacetate (DCFHDA). After treatment, the skin explants were treated with the moisturizer compositions at a dose of 2 mg/cm^2 and exposed to solar simulated UVA/UVB at doses of 70 mJ/cm^2 in triplicate. DCFH-DA is taken up by cells by passive diffusion and DCFH-DA is deacetylated by cellular esterases to non-fluorescent DCFH, which is trapped within cells. The fluorescent 2′, 7′-dichlorofluorescein (DCF) is generated upon enzymatic reduction and subsequent oxidation by ROS. Fluorescence was measured and correlates to the test item's ability to scavenge ROS. The results are presented as percentage reduction of ROS relative to the level generated following UVA/UVB exposure of unprotected skin. The results of these studies are shown in the Table below and presented as percentage reduction in intracellular ROS relative to unprotected skin. […] These associated skin protective effects include but are not limited to suppressing lipid peroxidation in the skin, preventing or reducing the appearance of lines and wrinkles in skin, preventing loss of elasticity of skin, preventing thinning of skin, and preventing pigment darkening of skin.

[2] = system: human skin explants; experiment: Intracellular ROS scavenging activity assay, HEV exposure; assay type: cell-based; details: HEV exposure 412 nm and 450 nm
Method: Intracellular Reactive Oxygen Species (ROS) Scavenging Activity Assays were conducted on human skin explants from donors of skin Phototype II. The skin explants were treated with, a non-fluorescent probe, 2′, 7′-Dichlorofluorescein diacetate (DCFHDA). […] DCFH-DA is taken up by cells by passive diffusion and DCFH-DA is deacetylated by cellular esterases to non-fluorescent DCFH, which is trapped within cells. The fluorescent 2′, 7′-dichlorofluorescein (DCF) is generated upon enzymatic reduction and subsequent oxidation by ROS. Fluorescence was measured and correlates to the test item's ability to scavenge ROS. The results are presented as percentage reduction of ROS relative to the level generated following UVA/UVB exposure of unprotected skin.

[3] = cited from earlier work

SMILES | reduction in ROS, result in words [1] | reduction in ROS, result in words [2] | solubility in bulk oils, such as soybean oil [3] [% by weigh]
Cc1c(C)c2c(c(C)c1O)CCC(C)(CCCC(C)CCCC(C)CCCC(C)C)O2 (racemic) [DL-alpha-tocopherol] | statistically significant reduction in ROS | no statistically significant reduction in ROS | –
C[C@@H]1O[C@@H](OC[C@H]2O[C@@H](Oc3c(-c4ccc(O)c(O)c4)oc4cc(O)cc(O)c4c3=O)[C@H](O)[C@@H](O)[C@@H]2O)[C@H](O)[C@H](O)[C@H]1O [Rutin, quercetin-3-O-rutinoside] | – | – | 0.1
